Numbered stars: 1 amine (or outer) side, 2 acyl side, 3 side chain; on linkers, the order of the positions; unused ones are H or OH. Square brackets hold non-standard residues; d marks the D form. Side chains are listed from the residue outwards. Peptide text beside a SMILES is read from it. * marks the point of attachment. C20 diacid = O=C(O)CCCCCCCCCCCCCCCCCCC(=O)*; γGlu = O=C(O)[C@H](CCC(=O)[*:2])N[*:1]; AEEA = NCCOCCOCC(=O)O; Aib = CC(C)(N)C(=O)O

A short description of series [1]: Turbidity of crude library peptides (absorbance at 600 nm). The class given is physicochemical. The conditions noted are these: Physical stability of peptides. In outline: (§1)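 Turbidity is the absorbance at 600 nm, taken before heating. Fibril signal is the mean ThT emission at 480 nm (450 nm excitation), read every 10 min over 72 h at 40° C with 700 rpm shaking between reads. Peptides at 267 μM, pH 4.0 acetate or pH 7.0 phosphate buffer (50 mM), 4 μM ThT final.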

The nature of series [2]: Fibril formation of crude library peptides (Thioflavin T). Also noted: key: average ThT fluorescence emission at 480 nm (ex 450 nm), raw units. The class given is physicochemical. The conditions noted are these: Physical stability of peptides. In outline: as §1
A further series addresses GLP1R (Homo sapiens, UniProt P43220). The series can be described thus: hGLP1R potency, cAMP accumulation in CHO-K1 cells stably overexpressing hGLP1R. Also noted: host or cells: CHO-K1. Conditions: for EC50: cAMP accumulation, CHO-K1 cells overexpressing hGLP1R, read-out: hGLP1R pEC50 (converted); for SCTR EC50/GLP1R EC50 ratio: selectivity for hGLP1R over hSCTR, cAMP accumulation in CHO-K1 cells. It counts as cell-based. In outline: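 2000 cells/well, DPBS + 0.05% casein + 0.5 mM IBMX; 30 min RT stimulation; HTRF cAMP detection after 1 h. Purified: 3-fold ×11, n=2; crude: 10-fold ×5, n=1. EC50 by variable-slope fit.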

Another series has as its target SCTR (Homo sapiens, UniProt P47872). Description: hSCTR potency, cAMP accumulation in CHO-K1 cells stably overexpressing hSCTR. It counts as cell-based. Also noted: alternatively Euroscreen ES-712-AF; FAST-0161L; host or cells: CHO-K1. The conditions noted are these: cAMP accumulation, CHO-K1 cells overexpressing hSCTR; read-out: hSCTR pEC50 (converted). Put shortly:
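Thawed CHO-K1 cells carrying stable hSCTR are plated into casein/IBMX buffer (0.05%, 0.5 mM), dosed immediately for 30 min at room temperature, then cAMP is detected by TR-FRET. Purified peptides run as 11 three-fold dilutions in duplicate, and curves are fitted with variable slope.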
Background: cAMP levels reflect the balance of adenylyl cyclase and phosphodiesterase activity.

Chain of SCTR (P47872 23-440): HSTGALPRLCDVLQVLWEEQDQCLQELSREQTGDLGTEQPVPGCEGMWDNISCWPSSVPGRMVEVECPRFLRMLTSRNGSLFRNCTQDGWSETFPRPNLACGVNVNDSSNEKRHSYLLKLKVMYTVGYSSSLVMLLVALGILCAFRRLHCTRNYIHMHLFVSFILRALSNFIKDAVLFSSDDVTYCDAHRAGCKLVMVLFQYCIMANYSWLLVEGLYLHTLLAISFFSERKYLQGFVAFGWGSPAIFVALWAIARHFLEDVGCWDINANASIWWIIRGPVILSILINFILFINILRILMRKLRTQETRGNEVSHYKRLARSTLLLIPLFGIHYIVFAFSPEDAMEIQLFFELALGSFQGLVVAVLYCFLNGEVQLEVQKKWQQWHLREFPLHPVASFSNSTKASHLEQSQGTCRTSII
Chain of GLP1R (P43220 24-463): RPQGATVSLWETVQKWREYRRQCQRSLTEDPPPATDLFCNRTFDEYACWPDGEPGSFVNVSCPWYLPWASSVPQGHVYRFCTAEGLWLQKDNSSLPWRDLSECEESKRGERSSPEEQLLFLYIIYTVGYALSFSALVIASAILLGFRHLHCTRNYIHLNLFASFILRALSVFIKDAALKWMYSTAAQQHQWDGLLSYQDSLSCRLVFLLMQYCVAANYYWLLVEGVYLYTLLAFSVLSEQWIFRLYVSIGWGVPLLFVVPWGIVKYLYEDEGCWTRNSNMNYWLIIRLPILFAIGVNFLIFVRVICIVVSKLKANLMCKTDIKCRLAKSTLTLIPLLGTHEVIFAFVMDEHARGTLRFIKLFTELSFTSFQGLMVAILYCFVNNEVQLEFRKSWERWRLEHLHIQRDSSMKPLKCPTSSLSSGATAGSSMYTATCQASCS

On to `CC(C)C[C@H](NC(=O)[C@H](Cc1ccccc1)NC(=O)[C@H](CCCNC(=N)N)NC(=O)[C@H](CCC(N)=O)NC(=O)[C@H](CC(C)C)NC(=O)C(C)(C)NC(=O)[C@H](C)NC(=O)[C@H](CCC(=O)O)NC(=O)[C@H](CCC(=O)O)NC(=O)[C@H](CCCCNC(=O)COCCOCCNC(=O)COCCOCCNC(=O)CC[C@H](NC(=O)CCCCCCCCCCCCCCCCCCC(=O)O)C(=O)O)NC(=O)[C@H](CC(C)C)NC(=O)[C@H](CC(C)C)NC(=O)[C@H](CO)NC(=O)[C@@H](NC(=O)[C@H](CC(=O)O)NC(=O)[C@H](CO)NC(=O)[C@@H](NC(=O)[C@H](Cc1ccccc1)NC(=O)[C@@H](NC(=O)CNC(=O)[C@H](CCC(=O)O)NC(=O)C(C)(C)NC(=O)[C@@H](N)Cc1c[nH]cn1)[C@@H](C)O)[C@@H](C)O)C(C)C)C(=O)N[C@@H](CCC(=O)O)C(=O)N[C@@H](Cc1c[nH]cn1)C(=O)N[C@@H](CC(C)C)C(=O)N[C@H](C(N)=O)C(C)C` [compound 149] (H-H[Aib]EGTFTSDVSLLK([AEEA-AEEA-γGlu-C20 diacid])EEA[Aib]LQRFLEHLV-NH2), for which the “Turbidity (pH 7)” value in series [1] is on record as 0.08. In series [2], this compound registered a Fibril formation of 2878. Also, the results for the EC50 at GLP1R and at SCTR were 0.0126 nM and 31.6 nM, respectively. In addition, the “SCTR EC50/GLP1R EC50 ratio” value on GLP1R is 2619.
On the same counts, the results for `CC(C)C[C@H](NC(=O)[C@H](Cc1ccccc1)NC(=O)[C@H](CCCNC(=N)N)NC(=O)[C@H](CCC(N)=O)NC(=O)[C@H](CCC(=O)O)NC(=O)C(C)(C)NC(=O)[C@H](C)NC(=O)[C@H](CCC(=O)O)NC(=O)[C@H](CCC(=O)O)NC(=O)[C@H](CCCCNC(=O)COCCOCCNC(=O)COCCOCCNC(=O)CC[C@H](NC(=O)CCCCCCCCCCCCCCCCCCC(=O)O)C(=O)O)NC(=O)[C@H](CC(C)C)NC(=O)[C@H](Cc1ccc(O)cc1)NC(=O)[C@H](CO)NC(=O)[C@@H](NC(=O)[C@H](CC(=O)O)NC(=O)[C@H](CO)NC(=O)[C@@H](NC(=O)[C@H](Cc1ccccc1)NC(=O)[C@@H](NC(=O)CNC(=O)[C@H](CCC(=O)O)NC(=O)C(C)(C)NC(=O)[C@@H](N)Cc1c[nH]cn1)[C@@H](C)O)[C@@H](C)O)C(C)C)C(=O)N[C@@H](CCC(=O)O)C(=O)N[C@@H](Cc1c[nH]cn1)C(=O)N[C@@H](CC(C)C)C(=O)N[C@H](C(N)=O)C(C)C` [compound 150] (H-H[Aib]EGTFTSDVSYLK([AEEA-AEEA-γGlu-C20 diacid])EEA[Aib]EQRFLEHLV-NH2) are 0.08, 2766, 0.00501 nM, 3160 nM and 693266.
For `CC(C)C[C@H](NC(=O)[C@H](Cc1ccccc1)NC(=O)[C@H](CCCNC(=N)N)NC(=O)[C@H](CCC(N)=O)NC(=O)[C@H](CC(C)C)NC(=O)C(C)(C)NC(=O)[C@H](C)NC(=O)[C@H](CCC(=O)O)NC(=O)[C@H](CCC(=O)O)NC(=O)[C@H](CCCCNC(=O)COCCOCCNC(=O)COCCOCCNC(=O)CC[C@H](NC(=O)CCCCCCCCCCCCCCCCCCC(=O)O)C(=O)O)NC(=O)[C@H](CC(C)C)NC(=O)[C@H](Cc1ccc(O)cc1)NC(=O)[C@H](CO)NC(=O)[C@@H](NC(=O)[C@H](CC(=O)O)NC(=O)[C@H](CO)NC(=O)[C@@H](NC(=O)[C@H](Cc1ccccc1)NC(=O)[C@@H](NC(=O)CNC(=O)[C@H](CCC(=O)O)NC(=O)C(C)(C)NC(=O)[C@@H](N)Cc1c[nH]cn1)[C@@H](C)O)[C@@H](C)O)C(C)C)C(=O)N[C@@H](CCC(=O)O)C(=O)N[C@@H](CCC(=O)O)C(=O)N[C@@H](CC(C)C)C(=O)N[C@H](C(N)=O)C(C)C` [compound 151] (H-H[Aib]EGTFTSDVSYLK([AEEA-AEEA-γGlu-C20 diacid])EEA[Aib]LQRFLEELV-NH2), in that order: 0.08, 3061, 0.0251 nM, 126 nM and 5170.
Take `CC(C)C[C@H](NC(=O)[C@H](Cc1ccccc1)NC(=O)[C@H](CCCNC(=N)N)NC(=O)[C@H](CCC(N)=O)NC(=O)C(C)(C)NC(=O)C(C)(C)NC(=O)[C@H](C)NC(=O)[C@H](CCC(=O)O)NC(=O)[C@H](CCC(=O)O)NC(=O)[C@H](CCCCNC(=O)COCCOCCNC(=O)COCCOCCNC(=O)CC[C@H](NC(=O)CCCCCCCCCCCCCCCCCCC(=O)O)C(=O)O)NC(=O)[C@H](CC(C)C)NC(=O)[C@H](Cc1ccc(O)cc1)NC(=O)[C@H](CO)NC(=O)[C@@H](NC(=O)[C@H](CC(=O)O)NC(=O)[C@H](CO)NC(=O)[C@@H](NC(=O)[C@H](Cc1ccccc1)NC(=O)[C@@H](NC(=O)CNC(=O)[C@H](CCC(=O)O)NC(=O)C(C)(C)NC(=O)[C@@H](N)Cc1c[nH]cn1)[C@@H](C)O)[C@@H](C)O)C(C)C)C(=O)N[C@@H](CCC(=O)O)C(=O)N[C@@H](Cc1c[nH]cn1)C(=O)N[C@@H](CC(C)C)C(=O)N[C@H](C(N)=O)C(C)C` [compound 152] (H-H[Aib]EGTFTSDVSYLK([AEEA-AEEA-γGlu-C20 diacid])EEA[Aib][Aib]QRFLEHLV-NH2): the “Turbidity (pH 7)” value in series [1] stood at 0.08. Besides, the Fibril formation in series [2] worked out at 3105. The results for the EC50 at GLP1R and at SCTR were 0.0126 nM and 3980 nM, respectively. For the same compound, the “SCTR EC50/GLP1R EC50 ratio” value at GLP1R amounted to 367578.
On the same counts, the results for `CC(C)C[C@H](NC(=O)[C@H](Cc1ccccc1)NC(=O)[C@H](CCCNC(=N)N)NC(=O)[C@H](CCC(N)=O)NC(=O)[C@H](CC(C)C)NC(=O)C(C)(C)NC(=O)[C@H](C)NC(=O)[C@H](CCC(=O)O)NC(=O)[C@H](CCC(=O)O)NC(=O)[C@H](CCCCNC(=O)COCCOCCNC(=O)COCCOCCNC(=O)CC[C@H](NC(=O)CCCCCCCCCCCCCCCCCCC(=O)O)C(=O)O)NC(=O)[C@H](CC(C)C)NC(=O)[C@H](CC(=O)O)NC(=O)[C@H](CO)NC(=O)[C@@H](NC(=O)[C@H](CC(=O)O)NC(=O)[C@H](CO)NC(=O)[C@@H](NC(=O)[C@H](Cc1ccccc1)NC(=O)[C@@H](NC(=O)CNC(=O)[C@H](CCC(=O)O)NC(=O)C(C)(C)NC(=O)[C@@H](N)Cc1c[nH]cn1)[C@@H](C)O)[C@@H](C)O)C(C)C)C(=O)N[C@@H](CCC(=O)O)C(=O)N[C@@H](Cc1c[nH]cn1)C(=O)N[C@@H](CC(C)C)C(=O)N[C@H](C(N)=O)C(C)C` [compound 153] (H-H[Aib]EGTFTSDVSDLK([AEEA-AEEA-γGlu-C20 diacid])EEA[Aib]LQRFLEHLV-NH2) are 0.08, 3897, 0.02 nM, 316 nM and 16095.
